Tests used:
[1] = system: BxPC-3 cell line; type: cell-based, human; details: combined with mubritinib, 6 days culture, >0 synergistic, 0 additive, <0 antagonistic
Experimental: (§1) Cell growth inhibition rate (%) was calculated by using the following calculation expression.
(§2) T: Mean luminescence intensity of wells with specimen B: Mean luminescence intensity of wells with DMSO and medium C: Mean luminescence intensity of wells with DMSO and cells
(§3) Sigmoid fitting with Genedata Screener Analyzer Version 14 (Genedata AG, hereinafter referred to as Screener) was performed for concentration-dependent transition of cell growth inhibition rates under each of combined use conditions.
(§4) After culturing, a solution obtained by diluting CellTiter-Glo 2.0 Assay (Promega Corporation) with an equivalent amount of Glo Lysis buffer, 1×(Promega Corporation) was added at 2 μL/well, and incubation was performed at room temperature for 1 hour, and luminescence intensity was then measured for each well.

[2] = system: NCI-N87 cell line; type: cell-based, human; details: 6 days culture, >0 synergistic, 0 additive, <0 antagonistic
Experimental: The human gastric cancer cell line NCI-N87 purchased from ATCC was used for evaluation. To a 1536-well cell culture plate, erlotinib (hydrochloride), poziotinib, mubritinib, brigatinib, or BIBF1120 prepared with dimethyl sulfoxide (DMSO) to concentrations of 2 mM, 400 μM, 80 μM, 16 μM, 3.2 μM, and 640 nM, or DMSO was added at 25 nL/well. […] Subsequently, NCI-N87 cells suspended with an RPMI1640 Medium containing 10% fetal bovine serum to a concentration of 4×10^4 cells/mL were seeded at 2.5 μL/well, and cultured at 37° C. under 5% CO2 for 6 days.
as §4, §1, §2, §3

[3] = system: EBC-1 cell line; type: cell-based, human; details: combined with mubritinib, 6 days culture, >0 synergistic, 0 additive, <0 antagonistic
Experimental: as §1, §2, §3

[4] = system: KPL-4 cell line; type: cell-based, human; details: 6 days culture, >0 synergistic, 0 additive, <0 antagonistic
Experimental: as §1, §2, §3

[5] = system: MDA-MB-453 cells; assay: Antitumor test (1): nude mice with subcutaneously transplanted MDA-MB-453 cells; type: in vivo, human; details: single administration, five times a week
Experimental: (§5) Mouse: 5 to 6-week-old BALB/c nude mice (Charles River Laboratories Japan, Inc.) were subjected to experiment.
(§6) Assay and calculation expression: In all of the studies, the major axis and minor axis of a tumor were measured twice a week by using an electronic digital caliper (CD15-CX, Mitutoyo Corp.), and the tumor volume (mm^3) was calculated. The calculation expression is as shown below.
(§7) Tumor volume (mm^3)=1/2×Major axis (mm)×[Minor axis (mm)]^2
(§8) Everolimus was suspended in 30% propylene glycol and 5% Tween 80, and orally administered at a liquid volume of 10 mL/kg. Taselisib was suspended in 0.5% methyl cellulose and 0.2% Tween 80, and orally administered at a liquid volume of 10 mL/kg. Abemaciclib was suspended in 1% hydroxyethyl cellulose and 0.1% antifoam/25 mM phosphate buffer, pH2, and orally administered at a liquid volume of 10 mL/kg.
Everolimus was administered once a day, five times a week, at a dose of 5 mg/kg for 3 weeks. Taselisib was administered once a day, five times a week, at a dose of 5 mg/kg for 3 weeks. Abemaciclib was administered once a day, five times a week, at a dose of 30 mg/kg for 2 weeks.

[6] = system: MDA-MB-453 cells; assay: Antitumor test (10): nude mice with subcutaneously transplanted MDA-MB-453 cells; type: in vivo, human; details: single administration
Experimental: as §5, §6, §7
MDA-MB-453 cells, a human breast cancer cell line, obtained from ATCC were suspended in Matrigel basement membrane matrix, and 1×10^7 cells were subcutaneously transplanted to the right flank of each female nude mouse, and the mice were randomly grouped 7 days after the transplantation (Day 0). The antibody-drug conjugate (2) was diluted with ABS buffer, and intravenously administered to the tail vein of each mouse once a week at a dose of 1 mg/kg (a liquid volume of 10 mL/kg) for three weeks (Days 0, 7, 14). Alpelisib was suspended in 0.5% methyl cellulose, and orally administered once a day, five times a week, at a dose of 25 mg/kg (a liquid volume of 10 mL/kg) for three weeks from Day 0. Single administration groups and a combined administration group with the antibody-drug conjugate (2) and alpelisib, and an ABS administration group as a control group were established.

[7] = system: 786-0 cells; assay: Antitumor test (8): nude mice with subcutaneously transplanted 786-0 cells; type: in vivo, human; details: single administration
Experimental: as §5, §6, §7
Suspended in 100% Matrigel were 786-0 cells, a human kidney cancer cell line, purchased from ATCC, and 4×10^6 cells were subcutaneously transplanted to the right flank of each female nude mouse, and the mice were randomly grouped 19 days after the transplantation (Day 0). […] Cabozantinib was administered once a day, five times a week, 20 times in total, at a dose of 40 mg/kg.

[8] = system: JIMT-1 cells; assay: Antitumor test (2): nude mice with subcutaneously transplanted JIMT-1 cells; type: in vivo, human; details: single administration; everolimus 5 mg/kg once a day, five times a week, seven times in total
Experimental: as §5, §6, §7, §8

[9] = system: KPL-4 cells; assay: Antitumor test (7): nude mice with subcutaneously transplanted KPL-4 cells; type: in vivo, human; details: single administration
Experimental: as §5, §6, §7
KPL-4 cells, a human breast cancer cell line, obtained from Dr. Junichi Kurebayashi, Kawasaki Medical School (British Journal of Cancer. (1999)79 (5/6). 707-717) were suspended in physiological saline, and 1.5×10^7 cells were subcutaneously transplanted to the right flank of each female nude mouse, and the mice were randomly grouped 17 days after the transplantation (Day 0). The antibody-drug conjugate (2) was diluted with ABS buffer, and intravenously administered to the tail vein of each mouse once a week at a dose of 10 mg/kg (a liquid volume of 10 mL/kg) for three weeks (Days 0, 7, 14). Neratinib was suspended in 0.5% methyl cellulose, and orally administered once a day, five times a week, at a dose of 20 mg/kg (a liquid volume of 10 mL/kg) for two weeks. Single administration groups and a combined administration group with the antibody-drug conjugate (2) and neratinib, and an ABS administration group as a control group were established.

[10] = system: MDA-MB-453 cells; assay: Antitumor test (9): nude mice with subcutaneously transplanted MDA-MB-453 cells; type: in vivo, human; details: single administration
Experimental: as §5, §6, §7
Palbociclib was suspended in 0.5% methyl cellulose, and orally administered once a day, five times a week, at a dose of 50 mg/kg (a liquid volume of 10 mL/kg) for three weeks from Day 0.

[11] = system: COLO201 cells; assay: Antitumor test (3): nude mice with subcutaneously transplanted COLO201 cells; type: in vivo, human; details: single administration; regorafenib 10 mg/kg orally once a day, five times a week, three weeks
Experimental: as §5, §6, §7, §8

[12] = system: MDA-MB-453 cells; assay: Antitumor test (5): nude mice with subcutaneously transplanted MDA-MB-453 cells; type: in vivo, human; details: single administration; tucatinib 100 mg/kg once a day, five times a week, three weeks
Experimental: as §5, §6, §7, §8

[13] = system: NCI-N87 cells; assay: Antitumor test (6): nude mice with subcutaneously transplanted NCI-N87 cells; type: in vivo, human; details: single administration; tucatinib 100 mg/kg once a day, five times a week, two weeks
Experimental: as §5, §6, §7, §8

[14] = system: KPL-4 cells; assay: Antitumor test (4): nude mice with subcutaneously transplanted KPL-4 cells; type: in vivo, human; details: single administration; tucatinib 100 mg/kg orally once a day, five times a week, two weeks
Experimental: as §5, §6, §7, §8

CC[C@@]1(O)C(=O)OCc2c1cc1n(c2=O)Cc2c-1nc1cc(F)c(C)c3c1c2[C@@H](NC(=O)CO)CC3 [Compound (1)]
Synergy Score, combination with Mubritinib [1]: −0.40
Synergy Score, combination with BIBF1120 ([2]; combined with BIBF1120 (nintedanib)): −0.44
Synergy Score, combination with Mubritinib ([2]; combined with mubritinib): −0.45
Synergy Score, combination with Poziotinib ([2]; combined with poziotinib): −0.53
Synergy Score, combination with Mubritinib [3]: −0.60
Synergy Score, combination with Brigatinib ([4]; combined with brigatinib): −0.02
Synergy Score, combination with Poziotinib ([4]; combined with poziotinib): −0.38

CCN1CCN(Cc2ccc(Nc3ncc(F)c(-c4cc(F)c5nc(C)n(C(C)C)c5c4)n3)nc2)CC1 [abemaciclib]
tumor growth inhibition (TGI) ([5]; abemaciclib 30 mg/kg orally once a day, 2 weeks): 68%

Cc1nc(NC(=O)N2CCC[C@H]2C(N)=O)sc1-c1ccnc(C(C)(C)C(F)(F)F)c1 [alpelisib]
tumor growth inhibition (TGI) ([6]; alpelisib 25 mg/kg orally once a day, five times a week, three weeks from Day 0): 56%

COc1cc2nccc(Oc3ccc(NC(=O)C4(C(=O)Nc5ccc(F)cc5)CC4)cc3)c2cc1OC [cabozantinib]
tumor growth inhibition (TGI) ([7]; cabozantinib 40 mg/kg once a day, five times a week, 20 times in total): 67%

CO[C@H]1C[C@@H]2CC[C@@H](C)[C@@](O)(O2)C(=O)C(=O)N2CCCC[C@H]2C(=O)O[C@H]([C@H](C)C[C@@H]2CC[C@@H](OCCO)[C@H](OC)C2)CC(=O)[C@H](C)/C=C(\C)[C@@H](O)[C@@H](OC)C(=O)[C@H](C)C[C@H](C)/C=C/C=C/C=C/1C [everolimus]
tumor growth inhibition (TGI) [8]: 52%
tumor growth inhibition (TGI) ([5]; everolimus 5 mg/kg orally once a day, 3 weeks, BALB/c nude mice, day of effect determination): 64%

CCOc1cc2ncc(C#N)c(Nc3ccc(OCc4ccccn4)c(Cl)c3)c2cc1NC(=O)/C=C/CN(C)C [neratinib]
tumor growth inhibition (TGI) ([9]; neratinib 20 mg/kg orally once a day, five times a week, two weeks, day of effect determination): 84%

CC(=O)c1c(C)c2cnc(Nc3ccc(N4CCNCC4)cn3)nc2n(C2CCCC2)c1=O [palbociclib]
tumor growth inhibition (TGI) ([10]; palbociclib 50 mg/kg orally once a day, five times a week, three weeks from Day 0): 72%

CNC(=O)c1cc(Oc2ccc(NC(=O)Nc3ccc(Cl)c(C(F)(F)F)c3)c(F)c2)ccn1 [regorafenib]
tumor growth inhibition (TGI) [11]: 81%

Cc1nc(-c2cn3c(n2)-c2ccc(-c4cnn(C(C)(C)C(N)=O)c4)cc2OCC3)n(C(C)C)n1 [taselisib]
tumor growth inhibition (TGI) ([5]; taselisib 5 mg/kg orally once a day, 3 weeks): 67%

Cc1cc(Nc2ncnc3ccc(NC4=NC(C)(C)CO4)cc23)ccc1Oc1ccn2ncnc2c1 [tucatinib]
tumor growth inhibition (TGI) [12]: 36%
tumor growth inhibition (TGI) [13]: 65%
tumor growth inhibition (TGI) [14]: 78%

antibody-drug conjugate (2): anti-HER3 antibody (SEQ ID NO: 3 and 4) conjugated to the drug-linker via thioether bond; DAR 7 to 8
tumor growth inhibition (TGI) ([6]; antibody-drug conjugate (2) 1 mg/kg iv once a week, three weeks (Days 0, 7, 14), grouped 7 days after transplantation): 68%
tumor growth inhibition (TGI) ([10]; antibody-drug conjugate (2) 1 mg/kg iv once a week, three weeks (Days 0, 7, 14), grouped 11 days after transplantation): 54%
tumor growth inhibition (TGI) ([9]; antibody-drug conjugate (2) 10 mg/kg iv once a week, three weeks (Days 0, 7, 14)): 67%

B1: antibody-drug conjugate (3): anti-CDH6 antibody (SEQ ID NO: 9 residues 20-471, SEQ ID NO: 10 residues 21-233) conjugated to the drug-linker via thioether bond; DAR 7 to 8 (conjugate, chains of the INN, looked up)
VH: EVQLVQSGAEVKKPGASVKVSCKASGYTFTRNFMHWVRQAPGQGLEWMGWIYPGDGETEYAQKFQGRVTITADTSTSTAYMELSSLRSEDTAVYYCARGVYGGFAGGYFDFWGQGTLVTVSS
VL: DIQMTQSPSSLSASVGDRVTITCKASQNIYKNLAWYQQKPGKAPKLLIYDANTLQTGVPSRFSGSGSGSDFTLTISSLQPEDFATYFCQQYYSGWAFGQGTKVEIK
modifications: deruxtecan-type drug-linker, DAR 7-8
tumor growth inhibition (TGI) ([7]; antibody-drug conjugate (3) 10 mg/kg iv on Day 0): 71%

From patent publication US20220040324A1, “COMBINATION OF ANTIBODY-DRUG CONJUGATE AND KINASE INHIBITOR” (DAIICHI SANKYO COMPANY, LIMITED, priority 2018, published 2022)
